Measurements from patent US20180057888A1, “KUB5/HERA AS A DETERMINANT OF SENSITIVITY TO DNA DAMAGE” (priority 2015, published 2018).
Like-named read-outs stand apart in the source and are kept apart here.

Tests used:
[1] = system: MDA-MB-231 breast cancer cell line; assay: Colony formation assay (clonogenic survival), parental MDA-MB-231; assay type: cell-based
Procedure: (§1) Colony Formation Assay (CFA).
(§2) Cells were seeded out in appropriate dilutions and treated with the vehicle (0.01% DMSO) or PARP inhibitors at various concentrations for 24 hr. After treatment, cells were then cultured in drug-free medium for several days (at least six rounds of replication), depending on the proliferation rate of each cell line. Colonies were fixed with formaldehyde (4%) and stained with crystal violet. Colonies containing more than 50 normal-appearing cells were counted using a microscope. Each drug concentration was assessed in triplicate, and the experiments were repeated three times.

[2] = system: HCC1569 breast cancer cell line; assay: cells; assay type: cell-based; details: Homo sapiens, HCC1569, read-out: AG014699 Mean LC50 (SEM)
Procedure: as §1, §2

[3] = system: HCC202 breast cancer cell line; assay: cells; assay type: cell-based; details: HCC202, read-out: AG014699 Mean LC50 (SEM)
Procedure: as §1, §2

[4] = system: HTB122 breast cancer cell line; assay: cells; assay type: cell-based; details: read-out: AG014699 Mean LC50 (SEM)
Procedure: as §1, §2

[5] = system: HTB24 breast cancer cell line; assay: cells; assay type: cell-based; details: read-out: AG014699 Mean LC50 (SEM)
Procedure: as §1, §2

[6] = system: MCF-7 breast cancer cell line; assay: cells; assay type: cell-based; details: Homo sapiens, MCF7, read-out: AG014699 Mean LC50 (SEM)
Procedure: as §1, §2

[7] = system: MDA-MB-231 shSCR cells; assay: Colony formation assay (clonogenic survival), MDA-MB-231 shSCR; assay type: cell-based
Procedure: as §1, §2

[8] = system: MDA-MB-231 shPARP1 cells; assay: Colony formation assay (clonogenic survival), MDA-MB-231 shPARP1; assay type: cell-based
Procedure: as §1, §2

[9] = system: MDA-MB-231 shK-H cells; assay: Colony formation assay (clonogenic survival), MDA-MB-231 shK-H; assay type: cell-based; details: for CC50: Homo sapiens; for sensitivity of shK-H cells in colony forming assays: shK-H cells compared to parental or shSCR 231 cells, 24 hr treatment
Procedure: as §1, §2

[10] = target: PARP1 (Homo sapiens, UniProt P09874); assay: PARP activity assay (PAR formation, immunoblot of total protein lysates); assay type: biochemical; details: lysates of parental, shK-H, shPARP1, shSCR 231 cells
Chain of PARP1 (P09874 whole entry): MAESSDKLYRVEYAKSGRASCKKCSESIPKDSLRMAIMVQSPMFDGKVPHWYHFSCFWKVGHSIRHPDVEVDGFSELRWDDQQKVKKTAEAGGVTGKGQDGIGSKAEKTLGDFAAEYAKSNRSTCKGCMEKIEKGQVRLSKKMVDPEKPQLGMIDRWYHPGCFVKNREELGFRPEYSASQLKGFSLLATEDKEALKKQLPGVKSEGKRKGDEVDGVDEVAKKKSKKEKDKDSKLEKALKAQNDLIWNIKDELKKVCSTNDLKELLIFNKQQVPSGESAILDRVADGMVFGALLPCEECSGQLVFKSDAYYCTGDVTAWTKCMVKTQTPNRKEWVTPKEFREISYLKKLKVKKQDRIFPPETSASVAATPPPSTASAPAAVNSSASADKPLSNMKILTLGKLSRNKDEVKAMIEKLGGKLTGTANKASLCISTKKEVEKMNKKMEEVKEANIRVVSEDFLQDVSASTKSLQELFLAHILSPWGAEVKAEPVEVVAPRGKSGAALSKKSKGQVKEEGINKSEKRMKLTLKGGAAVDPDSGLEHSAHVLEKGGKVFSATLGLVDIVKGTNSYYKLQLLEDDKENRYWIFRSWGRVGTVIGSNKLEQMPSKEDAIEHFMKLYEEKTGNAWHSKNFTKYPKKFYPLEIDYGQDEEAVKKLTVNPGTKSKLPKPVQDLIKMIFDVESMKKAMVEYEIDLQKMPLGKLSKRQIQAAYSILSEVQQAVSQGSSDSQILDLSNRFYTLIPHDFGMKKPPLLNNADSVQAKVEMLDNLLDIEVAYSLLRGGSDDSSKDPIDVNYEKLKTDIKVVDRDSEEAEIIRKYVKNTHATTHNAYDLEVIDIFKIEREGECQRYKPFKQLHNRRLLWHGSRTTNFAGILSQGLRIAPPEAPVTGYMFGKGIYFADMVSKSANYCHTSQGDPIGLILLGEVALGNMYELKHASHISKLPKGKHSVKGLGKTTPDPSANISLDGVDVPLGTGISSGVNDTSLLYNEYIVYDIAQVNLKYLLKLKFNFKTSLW
Procedure: PARP Activity Assay. PARP activity was measured using immunoblot assay, which measured the amount of poly(ADP)-ribonucleotide (PAR) products synthesized using total protein lysates for PARP enzymatic activity in vitro. Briefly, the reaction containing total protein lysate (90 μg), and excess blunt-ended double-strand DNA oligonucleotide (26-mer) with internal synthetic abasic site (50 uM) in a reaction buffer containing Tris-HCl (10 mM, pH=7.4) and Mg^2+ (12 mM) was initiated by addition of excess β-NAD^+ (10 mM). The reaction was then stopped at various time-points by the addition of ice-cold concentrated AG014699/Rucaparib (250 μM), a known PARP1 inhibitor. Aliquots from each time points of the reaction were blotted onto a nitrocellulose membrane (BioRad dot blotter), and processed using standard Western blot assays. The density of each dots were quantified by ImageJ and plotted by GraphPad PRISM after normalization to controls (no NAD^+ addition).

[11] = system: shK-H 231 cells; assay: TUNEL assay of apoptotic cell death; assay type: cell-based; details: Rucaparib 5 and 10 μM, 24 hr
Procedure: TUNEL Assay. To measure apoptotic cell death, log phase 231 shSCR or shK-H cells were treated with the vehicle (0.01% DMSO) or Rucaparib (5 and 10 μM) for 24 hr, and incubated in drug-free media for additional 72 hr in the cell incubator. The cells were then harvested and fixed in 70% ethanol overnight at −20° C. Equal amount of cells from each treatment were then subjected to terminal deoxynucleotidyltransferase dUTP nick end labeling (TUNEL) following the standard protocols from APO-Direct TUNEL Assay kit (BD Biosciences), which include positive and negative controls. Flow cytometry experiments were immediately performed using the BD LSRFortessa II cell analyzer, and data were analyzed using the BD FACSDiva software (www.bdbiosciences.com). All experiments were performed in triplicate.

[12] = system: shK-H 231 cells; assay: Immunofluorescence of γ-H2AX and 53BP1 foci (DSB markers), shK-H cells; assay type: cell-based; details: shK-H-depleted 231 cells, Rucaparib 5 μM, 24 hr
Procedure: (§3) MDA-MB-231 shSCR or shK-H cells were plated in a six-well plate (˜200,000 each well containing a glass slide) overnight. The next day, cells were treated with DMSO (0.01%) or Rucaparib/AG014699 (5 μM) for 24 hr. After treatment, the media was gently replaced with drug-free media and harvested at various times (0, 1, 6, 24 hr). The slides were gently washed with phosphate-buffered solution (pH=7.4), and fixed with ice cold methanol:acetone solution (3:1) for 10 min at −20° C. The cells were then washed and rehydrated with PBS at room temperature (3×, 5 min intervals). Next, the cells were incubated in blocking solution (5% normal goat serum in PBS) for 60 min at RT. After blocking, the cells were then incubated in primary antibody (diluted in 5% normal goat serum in PBS) overnight at 4° C. The next day, the cells were washed three times with wash buffer (1% BSA in PBS; 5 min. interval between washes). […]
(§4) To elucidate the mechanism by which K-H depletion sensitizes cells to PARP inhibition, the inventors treated shSCR vs shK-H 231 cells with vehicle (0.01% DMSO) or Rucaparib (5 μM) for 24 hr and quantified DSB formation at various times post-treatment using γ-H2AX and/or 53BP1 as surrogate DSB markers (Lobrich et al., 2010; Anderson et al., 2001 and Bekker-Jensen et al., 2005) (representative images, FIG. 2A).

[13] = system: shSCR 231 cells; assay: Immunofluorescence of γ-H2AX and 53BP1 foci (DSB markers), shSCR cells; assay type: cell-based; details: shSCR 231 cells with wild-type K-H; Rucaparib 5 μM, 24 hr
Procedure: as §3, §4

[14] = system: HCC1937 cells; assay: Sulforhodamine B viability assay in HCC1937 cells; assay type: cell-based; details: Rucaparib 30 μM, 24 hr
Source text: FIGS. 8A-H. Pharmacological and genetic ablation of PARP1 activity is synthetic lethal with aberrant K-H reduction in BRCA-proficient breast cancers. (FIG. 8A) Western blot analysis of the parental BRCA-proficient 231 TNBC compared with 231 cells engineered to generate stable short hairpin RNA targeting non-specific gene control (shSCR), Kub5-Hera (shK-H) or PARP1 (shPARP1). (FIG. 8B) Chemical structures of PARP inhibitors used in this study. Left, AG014361; Right, AG014699 or Rucaparib. (C) Colony formation of specified cell lines treated with varying concentrations (0, 1, 2.5, 5, 10, 25 μM) of PARP inhibitor, AG014361, for 24 hr. Survival is expressed as mean percentage of colonies formed relative to vehicle-treated (0.01% DMSO) cells; error bars represent ±s.e.m. from three replicates. (FIG. 8D) Total cellular proteins from indicated 231 cells treated with vehicle (0.01% DMSO), AG014699/Rucaparib (5 μM), or staurosporine (STS, 2 μM) were subjected to Western blot analysis with indicated antibodies. (FIG. 8E) Western blot analysis of HCC1937 cell lines stably transfected with empty vector (lane 1), BRCA1 cDNA (lane 2), BRCA1 cDNA+ transient siSCR (lane 3), or BRCA1 cDNA+ transient siK-H (lane 4). […] Colorimetric intensity values were obtained using a plate reader, and normalized to control (0.01% DMSO). […]

[15] = system: 231 cells; assay: Western blot analysis of pS1497-BRCA1 and CDK1 in 231 cells; assay type: cell-based; details: 24 hr; for CDK1 protein level: Rucaparib 5 μM and/or RO3066 0.5 and 1 μM
Procedure: FIGS. 9A-H. Loss of K-H compromises CDK1 expression/activity and reduces HR-mediated DSB repair. (FIG. 9[…]1 cells transiently transfected with indicated concentrations of siK-H for 48 hr. Total cellular proteins from each treatments were subjected to Western blot analysis using indicated antibodies. (FIG. 9B) Western blot analysis of CDK1 protein levels in 231 […] treated with siK-H (15 nM) and harvested at various times (24, 48, 72 hr). (FIG. 9C) Western blot analysis of CDK1 protein levels in 231 cells treated with siRNA to nonspecific gene control (siSCR) or specific genes as indicated (15 nM). Specific siRNA oligonucleotide sequences used in this study are listed in Table S3. […] (FIG. 9E) 231 cells treated with ionizing radiation (IR, 2 Gy) and harvested after 1 hr. […] Bottom, Endogenous phospho-[…] BRCA1 is higher in shSCR compared to shK-H. After IR treatment, […] BRCA1 phosphorylation is impaired in 231 shK-H but not in shSCR. (FIG. 9F) 231 cells treated with PARP1i Rucaparib (5 μM, 24 hr), CDK1 inhibitor RO3066 (0.5 and 1 μM, 24 hr) or combination [Rucaparib+RO3066]. Cells were harvested after 24 hr treatment. […] BRCA1 was activated ([…]-BRCA1) after Rucaparib treatment alone (lane 2) but not in combination with CDK1 inhibitor, RO3066 (lanes 5 and 6). […] (FIG. 90) Comparison of 231 […]) treated with Rucaparib (5 μM, 24 hr), CDK1 inhibitor RO3066 (1 μM, 24 hr) or combination [Rucaparib+RO3066]. Cells were harvested after 24 hr treatment. […] Endogenous […]-BRCA1 was higher in vehicle-treated shSCR (lane 1) compared to shK-H (lane 6). […] (FIG. 9H) Homologous recombination assay in MCF-7 cells using DR-GFP reporter system. Columns represent mean percentage of GFP-positive cells normalized to control (siSCR); error bars represent ±s.e.m. from duplicate experiments, *p<0.05, **p<0.01. See Table S3 for siRNA sequences. siK-H used was to 3'-UTR. Western Blot Analysis. Whole-cell lysates and nuclear extracts were prepared as previously described (Morales et al., 2014). See Supplementary Table S2 for a list of specific antibodies and dilutions used. Protein concentrations were determined by BCA Assay following manufacturer's instructions (Thermo Scientific). Normalized protein samples were separated on denaturing gradient gels (4-20% from BioRad) and were transferred to PVDF membranes for immunoblotting. After transfer, the membranes were first blocked with 1× Sigma Blocking Buffer for an hour at room temperature. The membranes were then incubated with the indicated primary antibodies diluted in 1× Sigma Blocking Buffer at 4° C. overnight. After this step, the membranes were washed with PBST (3×, 10 minutes each). HRP-conjugated secondary antibodies were diluted in 1× Sigma Blocking Buffer and incubated with the membranes at room temperature for 1 hr. […]

[16] = Homo sapiens, MDA-MB-231, read-out: AG014699 Mean LC50 (SEM)
[17] = Homo sapiens, MDA-MB-231, read-out: LC50 values

CNCc1ccc(-c2[nH]c3cc(F)cc4c3c2CCNC4=O)cc1 [AG014699, Rucaparib]
CC50 [1, 16]: 20 µM | CC50 [1, 17]: ~20 µM | CC50 [2]: 18 µM | CC50 [3]: 6.7 µM | CC50 [4]: 3.9 µM | CC50 [5]: 1.5 µM | CC50 [6]: 11 µM | CC50 [7, 16]: 18 µM | CC50 [7, 17]: ~20 µM | CC50 [8, 16]: 17 µM | CC50 [8, 17]: ~20 µM | CC50 ([9]; MDA-MB-231, read-out: AG014699 Mean LC50 (SEM)): 0.7 µM | CC50 ([9]; MDA-MB-231, read-out: lethality (LC50) in shK-H 231 cells): 0.66 µM | fold greater lethality than similar AG014361 exposures ([9]; shK-H 231 cells, Rucaparib vs AG014361): ~6 fold | Relative PARP enzymatic activity [PAR formation/Time (sec)] [10]: inhibited | apoptosis (% TUNEL+) [11]: dose-dependent increase in apoptosis | levels of co-localized γ-H2AX and 53BP1 foci (persistent DSBs) [12]: dramatically increased | DSB levels (53BP1 foci formation) ([12]; over time post-treatment): Dramatic increase in DSB levels | levels of DSBs after exposure [13]: significantly lower levels of DSBs | lethality after siK-H depletion of BRCA1-corrected cells ([14]; BRCA1-corrected HCC1937 + siK-H): induced lethality | lethality after reconstitution with BRCA1 cDNA ([14]; BRCA-deficient HCC1937 + BRCA1 cDNA): abolished | CDK1 protein level ([15]; 231 cells): no further reduction of CDK1 | BRCA1 activation (pS1497-BRCA1) ([15]; 231 cells, Rucaparib alone 5 μM): activated

Cn1ncnc1[C@H]1c2n[nH]c(=O)c3cc(F)cc(c23)N[C@@H]1c1ccc(F)cc1 [Talazoparib]
sensitivity of shK-H cells in colony forming assays [9]: more sensitive

O=C1NC(=NCc2cccs2)S/C1=C\c1ccc2ncccc2c1 [RO3066]
CDK1 protein level ([15]; 231 cells): no further reduction of CDK1 | pS1497-BRCA1 activation in combination with Rucaparib ([15]; 231 shSCR cells, Rucaparib 5 μM + RO3066 1 μM): inhibited

CN(C)Cc1ccc(-c2nc3cccc4c3n2CCNC4=O)cc1 [AG014361]
CC50 ([1]; parental 231 cells, similar treatment conditions, read-out: LC50 values): ~20 µM | CC50 ([7]; shSCR 231 cells, similar treatment conditions, read-out: LC50 values): ~20 µM | additional lethality in PARP1-deficient cells ([8]; shPARP1 231 cells, dose-response curve coinciding with parental or shSCR cells): did not induce additional lethality | CC50 ([8]; shPARP1 231 cells, similar treatment conditions, read-out: LC50 values): ~20 µM | sensitivity of shK-H cells in colony forming assays [9]: more sensitive
